Source: patent US8673910B2, “Proteasome inhibitors for selectively inducing apoptosis in cancer cells” (H. Lee Moffitt Cancer Center and Research Institute, priority 2008, dated 2014)
Where “and” joins values, the source holds several entries; their conditions need not be identical. Identical values can stand only once. Like-named read-outs stand apart in the source and are kept apart here.

Legend:
[1] = system: CT-L activity of rabbit 20S proteasome; experiment: Dialysis using purified rabbit 20S proteasome; format: biochemical; settings: compound 10 μM, 30 min pre-incubation at 37° C.
Experimental: To measure the effect of dialysis on CT-L activity, compounds (10 μM) or vehicle (0.1% DMSO) were added to rabbit 20S proteasome (225 ng) (Boston Biochem) in proteasome assay buffer (50 mM Tris-HCl, pH 7.6) and incubated at 37° C. for 30 min. After 30 min of incubation, proteasome-compound mixtures were added to 10,000 MWCO Thermo Scientific Slide-A-Lyzer Dialysis Cassette (Rockford, Ill.) and dialyzed against proteasome assay buffer. Immediately (t=0) and 0.5 h, 1 h, 2 h, 4 h, and 18 h of dialysis at 4° C., samples were removed from the dialysis cassette and the CT-L 20S proteasome activity was determined. Proteasome activity was normalized against proteasome activity of DMSO control.

[2] = biological target: T1, tumor CT-L activity (A549 tumors) (Homo sapiens, UniProt P20618+P28074); experiment: Proteasome activity in A549 tumor lysates after in vivo treatment; set-up: species or system nude mice; settings: mouse, ip; A549 tumors extracted 2 hours after last i.p. injection (1 mpk), vs DMSO-treated controls
T1 construct: from tissue; host or cells: A549 human lung tumour xenografts grown in nude mice
Experimental: (§3) To determine proteasome activity in whole cell extracts from cultured cells (5 μg) or tumor and liver tissue extracts (30 μg) from nude mice, the same assay was used except that the buffer was changed to 20 mM HEPES, 0.5 mM EDTA, pH 8.0.
(§4) Whole cell extracts were prepared as follows: Cells were harvested, washed with PBS twice, and homogenized in a lysis buffer (50 mM Tris-HCl, pH 8.0, 5 mM EDTA, 150 mM NaCl, 0.5% NP-40) for 30 min at 4° C. Cell extracts from tumors and livers of nude mice were prepared in 50 mM HEPES, 0.5 mM EDTA, pH 8.0. Cell lysates were centrifuged at 12,000 g for 15 min, and the supernatants were collected as whole cell extracts.
(§5) Nude mice (Charles River Laboratories, Wilmington, Mass.) were maintained and treated in accordance with the Institutional Animal Care and Use Committee procedures and guidelines. […] Exponentially growing MCF-7 and A549 cells were harvested via trypsinization, pelleted at 300 g for 5 minutes, resuspended in sterile PBS (Invitrogen) at 10^7 cells per 100 μl, and injected into each flank of mice. The tumor xenografts were monitored with an electronic caliper every other day for 16 days. Tumor volume was calculated using the formula V=W^2L, where width is the largest diameter and length is the smallest diameter. When the tumors reached ˜200 mm^3, the animals were randomized and treatment schedules were implemented. […]

[3] = biological target: tumor PGPH activity (A549 tumors) (Homo sapiens, UniProt P28072); experiment: as above
Experimental: as §3, §4, §5

[4] = system: MCF-7/MCF-10A, T-80-Hras/T-80, C7-Kras/C7 cells; experiment: TUNEL assay, apoptosis in cancer and non-transformed cell pairs; format: cell-based, human; settings: 3 pairs of cell lines, 24 h
Experimental: Terminal deoxynucleotidyl transferase-mediated nick-end labeling (TUNEL) was used to determine the extent of DNA strand breaks (Kazi et al., 2004). The assay was performed with the APO-Direct Kit following the manufacturer's instructions. In brief, the harvested cells were fixed in 1% paraformaldehyde for 45 minutes on ice, washed twice with PBS, and then fixed again in 70% ethanol at −20° C. overnight. The cells were then incubated in DNA labeling solution (containing terminal deoxynucleotidyl transferase (TdT) enzyme, fluorescence-conjugated dUTP and reaction buffer) for 60 minutes at 37° C. After rinsing the cells to remove the DNA labeling solution, the cells were incubated with the propidium iodide/RNase A solution, incubated for 30 minutes at room temperature in the dark, and analyzed by flow cytometry within 3 hours of staining.

[5] = system: p27^Kip1 protein in A549 tumors; experiment: Western blot of p27Kip1 in A549 tumor lysates; format: in vivo; settings: A549-bearing nude mice
Experimental: (§1) Cell lysates (50 μg) were separated by SDS-PAGE and transferred to a nitrocellulose membrane, probed with p27^Kip1 and β-actin antibodies, and signals were visualized by enhanced chemoluminescence (ECL, Amersham, Piscataway, N.J.) according to the manufacturer's protocol.

[6] = biological target: T2, hepatic CT-L, T-L, and PGPH activities (Mus musculus, UniProt O09061+O55234+P70195+Q60692); experiment: Proteasome activities in livers of tumor-bearing mice after in vivo treatment; set-up: species or system nude mice; settings: livers extracted 2 hours after last i.p. injection (1 mpk)
T2 construct: from tissue; host or cells: liver of tumour-bearing nude mice (Charles River)
Experimental: as §3, §4, §5

[7] = biological target: T3, chymotrypsin-like (CT-L) activity of purified 20S rabbit proteasome (Oryctolagus cuniculus, UniProt G1T4Q9); experiment: Proteolytic activity of purified 20S proteasome, fluorogenic substrate Suc-Leu-Leu-Val-Tyr-AMC; format: biochemical
T3 sequence (G1T4Q9 1-263): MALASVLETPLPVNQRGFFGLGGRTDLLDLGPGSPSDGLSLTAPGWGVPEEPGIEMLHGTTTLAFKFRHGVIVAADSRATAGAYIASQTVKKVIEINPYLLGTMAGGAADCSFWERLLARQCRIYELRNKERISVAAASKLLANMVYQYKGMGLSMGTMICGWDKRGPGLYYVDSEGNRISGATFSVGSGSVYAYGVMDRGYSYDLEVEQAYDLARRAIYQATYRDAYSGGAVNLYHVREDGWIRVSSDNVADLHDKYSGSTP
Experimental: The inhibitory activity of the compounds was calculated based on vehicle control). This technique monitors the hydrolytic release of a coumarin species from a synthetic peptide substrate.
The assay was conducted by using a fluorogenic peptide as substrate to test synthesized compounds for inhibitory activity against the chymotrypsin-like activity of the purified rabbit 20S proteasome. Briefly, 70 ng of purified 20S proteasome was incubated with 20 μM Suc-Leu-Leu-Val-Tyr-AMC for 1 hour at 37° C. in 100 μl of assay buffer (50 mM Tris-HCl, pH 7.6) with or without inhibitors. After incubation, production of hydrolyzed 7-amido-4-methyl-coumarin (AMC) was measured using a WALLAC Victor2 1420 Multilabel Counter with an excitation filter of 355 nm and an emission filter of 460 nm (Perkin Elmer Life Sciences, Turku, Finland). The inhibitory activity of the compounds was calculated based on vehicle control.

[8] = biological target: T4, PGPH activity of purified 20S rabbit proteasome (Oryctolagus cuniculus, UniProt A0A5F9DQW2); experiment: Proteolytic activity of purified 20S proteasome, fluorogenic substrate Z-Leu-Leu-Glu-AMC; format: biochemical; settings: Table 4: means of 3 experiments ± standard error, read-out: IC50 for PGPH-like activity in vitro
T4 construct: purchased Boston Biochem
Experimental: In the high-throughput screen, the inventors used fluorogenic peptides as substrates to assay 3,229 compounds of the NCI Diversity, Natural Product, Challenge and Mechanistic Sets for inhibitory activity against the proteolytic activities of the purified 20S proteasome, resulting in the identification of PI-083. […] After incubation, production of hydrolyzed 7-amido-4-methyl-coumarin (AMC) groups was measured using a WALLAC Victor^2 1420 Multilabel Counter with an excitation filter of 355 nm and an emission filter of 460 nm (Perkin Elmer Life Sciences, Turku, Finland).

[9] = system: primary multiple myeloma cells isolated from patients' bone marrow; experiment: Viability of primary multiple myeloma cells (MTT assay); format: cell-based, human
Experimental: (§2) MM patients' bone marrow samples were collected from Liquid Tissue Bank facility. Freshly isolated bone marrow samples were fractionated by Ficoll-Paque (Pharmacia Biotech, Piscataway, N.J.) sedimentation. The mononuclear cellular layer was then resuspended in RPMI-1640 containing 10% heat-inactivated fetal bovine serum, 10 mM HEPES (pH 7.4), sodium pyruvate, L-glutamine, and 1% penicillin-streptomycin.
Cells were plated in 96-well plates in 100 μl medium and allowed to attach overnight. […] […] Media was then aspirated and DMSO was added. Cells were incubated for 10 min at room temperature while shaking, and the absorbance was determined at 540 nm using a μQuant spectrophotometric plate reader (Bio-TEK, Winooski, Vt.).

[10] = system: p27^Kip1 levels in A549 lung cancer cells; experiment: Western blot of p27Kip1 in cultured A549 cells; format: cell-based, human; settings: 48 h treatment
Experimental: as §1

[11] = system: primary multiple myeloma cells isolated from patients' bone marrow; experiment: Cell death of primary multiple myeloma cells (Trypan blue); format: cell-based, human; settings: read-out: Cell death 24 h (IC50 values); primary MM cells, 24 h treatment; Table 5: one value per patient; mean over patients
Experimental: as §2
Adherent cells were harvested using trypsinization and pooled with suspension cells from media supernatant by pelleting at 300 g for 5 min at 4° C. The cells were then resuspended in an appropriate volume of media by pipetting gently up and down. Two 20 μl aliquots were removed and combined with an equal volume of 0.4% Trypan blue and allowed to mix for 1 minute. A 10 μl volume was loaded onto a hemacytometer and cells were scored as live or dead based on Trypan blue dye exclusion and the percentage of dead cell number to total cell number was calculated. To calculate the percentage of proliferation, the number of live cells in the treated samples was divided by the number of live cells in the untreated vehicle control.

[12] = read-out: Viability 24 h (IC50 values), primary MM cells, 24 h, Table 5: one value per patient, mean over patients

T4 sequence (A0A5F9DQW2 1-212): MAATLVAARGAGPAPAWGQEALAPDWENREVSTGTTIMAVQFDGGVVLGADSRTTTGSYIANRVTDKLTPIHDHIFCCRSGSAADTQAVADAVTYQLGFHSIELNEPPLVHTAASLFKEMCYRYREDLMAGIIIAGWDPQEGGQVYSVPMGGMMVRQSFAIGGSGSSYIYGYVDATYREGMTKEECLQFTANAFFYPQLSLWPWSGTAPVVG

SMILES | inhibition of CT-L activity of the 20S proteasome in the absence of dialysis [1] [%] | inhibition at 1 mg/kg [2] [%] | inhibition of tumor PGPH activity ([3]; A549 tumors extracted 2 hours after last i.p. injection (1 mpk), vs DMSO-treated controls) [%] | apoptosis (TUNEL) [4] | treated tumors with dramatic upregulation of p27^Kip1 protein [5] | effect on proteasome activities in livers of tumor-bearing mice [6] | difference in potency between bortezomib and PI-083 ([7]; CT-L inhibition) [fold] | IC50 [8] [nM] | IC50 ([9]; primary MM cells, 48 h, Table 5: one value per patient, b176: mean over patients, listed as bortezomib, read-out: Viability 48 h (IC50 values)) [nM] | IC50 [9, 12] | IC50 ([9]; read-out: Viability 72 h (IC50 values), primary MM cells, 72 h, Table 5: one value per patient, b176: mean over patients, listed as bortezomib) [nM] | p27^Kip1 levels in cultured A549 lung cancer cells [10] | inhibition at 1 mg/kg ([3]; A549, mouse, ip, read-out: inhibition of tumor PGPH activity) [%] | IC50 [11] | IC50 ([7]; PI-083 derivatives (Table 7, naphthoquinone library), purified rabbit 20S proteasome, read-out: IC50 (μM) Chymotrypsin-like activity) [µM] | IC50 ([7]; purified 20S rabbit proteasome, Table 4: means of 3 experiments ± standard error, read-out: IC50 for CT-L activity in vitro) [µM] | IC50 ([9]; primary MM cells, 48 h, Table 5: one value per patient, b176: mean over patients, read-out: Viability 48 h (IC50 values)) | IC50 ([9]; read-out: Viability 72 h (IC50 values), primary MM cells, 72 h, Table 5: one value per patient, b176: mean over patients)
CC(C)C[C@H](NC(=O)[C@H](Cc1ccccc1)NC(=O)c1cnccn1)B(O)O [Bortezomib, reference compound] | 99 | 70 | 68 | induced little apoptosis in any of the cell lines | 4 out of 4 | significantly inhibited hepatic CT-L, T-L, and PGPH activities | 100 | 475 | 140 ± 80 | 190 nM and 280 nM | 46 ± 8 | marked increase |  |  |  |  |  | 
O=C1C(Cl)=C(Nc2ccc(S(=O)(=O)Nc3ccccn3)cc2)C(=O)c2ccccc21 [PI-083, 4-(3-chloro-1,4-dioxo-1,4-dihydronaphthalen-2-ylamino)-N-(pyridin-2-yl)benzenesulfonamide] |  | 43 |  |  |  | did not inhibit liver proteasome activities |  |  |  | > 10000 nM and 2200 nM and 3400 nM and 1800 nM and 2000 nM |  |  | 34 | 6200 nM and 2700 nM and 1100 nM and 2400 nM and 1700 nM and 4100 nM and 9000 nM and 7300 nM and 3200 nM | 1.2 ± 1 | 1 | 1790 nM and 2600 nM and 3600 nM and 900 nM and 1500 nM | 1600 nM and 2200 nM and 2600 nM and 1300 nM and 1800 nM and 350 nM
